Assay results taken from PubChem BioAssay (NCI).
Several values for one entry are separate records, joined by “and”; a condition that tells them apart may be missing. Equal values may be shown once.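 Growth conditions: 96-well plates. Treatment: test compound, 48 hours, 5 concentrations. Analysis: linear interpolation between bracketing concentrations; unreached endpoints set to highest concentration. GI50: concentration for 50% inhibition of growth. TGI marks complete inhibition of growth.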

Tests used:
Experiment in all cases: NCI tumour cell line growth inhibition, 48 h
RXF 393 renal = tested on: RXF 393 renal
SN12C renal = tested on: SN12C renal
T-47D breast = tested on: T-47D breast
M14 melanoma = tested on: M14 melanoma
HT29 colon = tested on: HT29 colon
OVCAR-5 ovarian = tested on: OVCAR-5 ovarian
CAKI-1 renal = tested on: CAKI-1 renal
PC-3 prostate = tested on: PC-3 prostate
K-562 leukemia = tested on: K-562 leukemia
SNB-19 CNS = tested on: SNB-19 CNS

Row | Structure (SMILES) | GI50 (RXF 393 renal) | TGI (RXF 393 renal) | GI50 (SN12C renal) | TGI (SN12C renal) | GI50 (T-47D breast) | TGI (T-47D breast) | GI50 (M14 melanoma) | TGI (M14 melanoma) | GI50 (HT29 colon) | TGI (HT29 colon) | GI50 (OVCAR-5 ovarian) | TGI (OVCAR-5 ovarian) | GI50 (CAKI-1 renal) | TGI (CAKI-1 renal) | GI50 (PC-3 prostate) | TGI (PC-3 prostate) | GI50 (K-562 leukemia) | TGI (K-562 leukemia) | GI50 (SNB-19 CNS) | TGI (SNB-19 CNS)
1 | O=C(/C=C/c1cccs1)c1ccc(Nc2nc(Nc3ccc(F)cc3)nc(Nc3ccc(F)cc3)n2)cc1 | 23.3 µM | 75.1 µM | > 100 µM | > 100 µM | 15.2 µM | 79.1 µM | 29.7 µM | > 100 µM | 22.2 µM | 70.5 µM | > 100 µM | > 100 µM | 38.1 µM | > 100 µM | 19 µM | 44.4 µM | 29.9 µM | > 100 µM | 34.1 µM | > 100 µM
2 | COc1ccc(C(=O)COc2cccc(/C=C3\CSc4ccccc4C3=O)c2)cc1 | 2.42 µM | 5.39 µM | 2.63 µM | 8.31 µM | 2.33 µM | 5.79 µM | 2.01 µM | 4.01 µM | 1.55 µM | 3.18 µM | 2.18 µM | 4.77 µM | 4.07 µM | 12.5 µM | 2.03 µM | 5.03 µM | 0.362 µM |  | 2.77 µM | 8.73 µM
3 | CN(CC(=O)O)c1ccc(/C=C/c2ccnc3ccccc23)cc1 |  | 49.8 µM |  | 92.8 µM |  | > 100 µM |  | 67.7 µM |  | 66.6 µM |  | 94 µM |  | 66.1 µM |  | > 100 µM |  | > 100 µM |  | > 100 µM
4 | COc1ccc(-c2nnc(SCC(=O)Nc3ccc(/C(C)=N\O)cc3)n2-c2ccccc2)cc1OC | 2.56 µM | 7.11 µM | 26.2 µM | > 100 µM | 9.45 µM | > 100 µM | 97.4 µM | > 100 µM | > 100 µM | > 100 µM | > 100 µM | > 100 µM | > 100 µM | > 100 µM | > 100 µM | > 100 µM | > 100 µM | > 100 µM | 6.43 µM | > 100 µM
5 | COC1(O)C(=O)c2ccccc2OC1(OC)c1ccccc1 (centres undefined) |  | > 100 µM |  | > 100 µM |  | > 100 µM |  | > 100 µM |  | > 100 µM |  | > 100 µM |  | > 100 µM |  | > 100 µM |  | > 100 µM |  | > 100 µM
6 | O=C1/C(=C/c2ccccc2F)CNC/C1=C\c1ccccc1F | 0.385 µM and 0.728 µM | 1.12 µM and 1.87 µM | 0.837 µM and 0.783 µM | 2.05 µM and 2.81 µM | 1.07 µM and 2.6 µM | 6.1 µM and 12.2 µM | 1.16 µM and 1.2 µM | 3.73 µM and 2.84 µM | 0.261 µM and 0.242 µM | 1.17 µM and 0.543 µM | 0.935 µM and 1.91 µM | 2.34 µM and 3.96 µM | 0.676 µM and 0.611 µM | 3.71 µM and 2.16 µM | 0.295 µM and 0.551 µM | 1.07 µM and 3.2 µM | 0.27 µM and 0.341 µM | 2.27 µM and 2.63 µM | 0.643 µM and 1.01 µM | 2.66 µM and 3.99 µM
7 | C=C(C)[C@@H]1CC[C@]2(C(=O)NCCNCCNCCN)CC[C@]3(C)[C@H](CC[C@@H]4[C@@]5(C)CC[C@H](O)C(C)(C)[C@@H]5CC[C@]43C)[C@@H]12 | 13.2 µM | 27.2 µM | 13.5 µM | 33.2 µM | 10.9 µM | 32.3 µM | 11 µM | 28.7 µM | 14.6 µM | 34 µM | 18.6 µM | 35 µM | 5.92 µM | 20.1 µM | 2.95 µM | 18.6 µM | 6.9 µM | > 100 µM | 12.9 µM | 28.2 µM
